How the values were obtained:
[1] = test system: lysosomal and autophagy genes; assay: Expression analysis of whole brain homogenates; assay type: in vivo, mouse
Description: Total RNA was extracted from the control and JNCL fibroblasts and from WT and Cln3^Δex7-8 cortical neuron cultures using the RNEasy kit (Qiagen) according to the manufacturer's instructions. Half of the mouse brain was processed for the RNA extraction and one microgram was used for complementary DNA synthesis by QuantiTect Reverse Transcription kit (Qiagen). The primers for PCR with reverse transcription reactions are listed in Table St Quantitative real-time PCR was performed by using iQ SYBR Green Supermix on the CFX96 Touch Real-Time Detection System (Bio-Rad Laboratories). Samples were heated for 3 min at 95° C. and amplified in 39 cycles for 11 s at 95° C., 45 s at 60° C. with last cycle of 10 s at 95° C., 5 s at 65° C. and 5 s at 95° C. Analyses were conducted using CFX manager software (Bio-Rad) and the threshold cycle (CT) was extracted from the PCR amplification plot. Relative gene expression was determined using the ΔΔCT method, normalizing to GAPDH (for human genes) and cyclophilin (for mouse genes). The change in messenger RNA level of the genes was expressed in fold change as previously described. Error bars represent s.e.m. *P<0.05, **P<0.01, ***P<0.001.
Mice were injected intraperitoneally with MK2206 (120 mg/kg) for four times every other day. MK2206 was formulated in 30% captisol in water. […]

[2] = test system: Akt; assay: Akt activity in mouse brain homogenates; assay type: in vivo
Description: (§1) Brain tissue and cultured cells were collected and lysed in RIPA buffer (50 mM Tris-HCl, ph 7.4, 1% NP40, 0.5% Na-deoxycholate, 0.1% SDS, 150 mM NaCl, 2 mM EDTA and 50 mM NaF) including a cocktail of protease (Roche) and phosphatase (SIGMA) inhibitors. Protein concentrations were measured with the bicinchoninic acid protein assay kit (Pierce, Rockford, Ill.), using bovine serum albumin as standard. Lysates were separated via SDS-polyacrylamide gel electrophoresis (PAGE) and then transferred to nitrocellulose membranes. Blots were incubated in blocking buffer (5%, w/v, dried skimmed milk in Tris-buffered saline, pH 7.4 and 0.2% Tween 20, TBST) followed by overnight incubation with appropriate antibodies diluted in blocking buffer (5% dry milk). Western blot images were acquired by LAS 4000 (GE Healthcare) and quantified using ImageJ. Images have been cropped for presentation.
Mice were injected intraperitoneally with MK2206 (120 mg/kg) for four times every other day. MK2206 was formulated in 30% captisol in water. Four Cln3^Δex7-8 mice were injected with MK2206 and four were injected with 30% captisol as vehicle control.
Trehalose (Swanson) was dissolved in drinking water to a final concentration of 2% and changed twice a week. […]

[3] = test system: TFEB; assay: TFEB nuclear translocation in cells expressing constitutively active GSK3β; assay type: cell-based, human; details: cells expressing CA-GSK3β/S9A-GSK3β, 24 h
Description: FIG. 16. Trehalose controls Akt regulation of TFEB in a GSK3β-independent manner. (a) HeLa cells were treated with trehalose for 24 h or left untreated. Immunoblot analyses were used to evaluate levels of GSK33 and its phosphorylation status. GAPDH was used as a loading control. (b) HeLa cells were cotransfected with TFEB-3×Flag and constitutively active GSK3β (CA-GSK3β), treated with trehalose or MK2206 for 24 h, and examined by immunofluorescence labeling for Flag (red) and GSK3β (green). Scale bar is 20 […]. (c) HeLa cells were cotransfected with TFEB-3×Flag and constitutively active Akt (Akt-DD), treated with the GSK3β inhibitor CHIR99021 for 24 h, and examined by immunofluorescence labeling for Flag (red) and Akt (green). Scale bar is 20 μm.

[4] = test system: HeLa cells; assay: Autophagy in HeLa cells (LC3 puncta, LC3 lipidation, TEM); assay type: cell-based, human; details: for number of autophagic vesicles: TEM
Description: FIG. 24. […] (b) Immunoblot analysis of LC3 lipidation. […] (d) Expression analysis of lysosomal and autophagy genes in HeLa cells treated with MK2206. Gene expression was normalized relative to the housekeeping gene, GAPDH. The dashed line indicates relative gene expression in untreated cells. […] Scale bar, 10 μm (a), 50 nm (c) and 20 μm (f).
Control (Coriell Institute, USA) and JNCL fibroblasts (Gaslini Institute, Italy) were grown in DMEM (1:1, HyClone) supplemented with 10% heat-inactivated fetal bovine serum (FBS, Atlanta Biologicals), 2 mM L-glutamine, 100 U/ml penicillin and […] streptomycin (Invitrogen). HeLa cells were incubated for 2 h with LY294002 ([…], Cell Signaling), Torin 1 (300 nM, Cayman Chemical) or for 24 h with trehalose (100 mM, Sigma), rapamycin (300 nM, Sigma), MK2206 (1 μM, Selleckchem), U0126 ([…], Tocris) and dialyzed serum (GE Healthcare Life Sciences) for 30 min.
For immunofluorescence assay, cells were grown on coverslips in 24-well plates. After the treatment, cells were washed with PBS and fixed with methanol for 10 min. Cells were then blocked with blocking reagent (0.1% saponin, 10% bovine serum in PBS) for 1 h and incubated with appropriate primary antibody(s) (1:100) for 3 h at room temperature. After three washes with PBS, the cells were incubated with appropriate secondary antibodies (1:500) for 1 h at room temperature. Coverslips were then mounted with vectashield containing 4,6-diamidino-2-phenylindole (H-1200) for imaging via confocal microscopy.
as §1

## OC[C@H]1O[C@H](O[C@H]2O[C@H](CO)[C@@H](O)[C@H](O)[C@H]2O)[C@H](O)[C@@H](O)[C@@H]1O [trehalose, a-D-glucopyranosyl a-D-glucopyranoside]
[1]; WT and Cln3^Δex7-8 mice, oral trehalose
  expression of lysosomal and autophagy genes in brain: upregulation of lysosomal and autophagy genes
[2]; WT and Cln3^Δex7-8 mice, trehalose-treated (oral)
  Akt activity in brain: Akt inhibition was confirmed
[3]
  TFEB nuclear translocation: able to induce nuclear translocation of TFEB
[4]
  number of LC3 puncta: increased number of puncta
  number of autophagic vesicles: increased number of autophagic vesicles

## Cl.NC1(c2ccc(-c3nc4ccn5c(=O)[nH]nc5c4cc3-c3ccccc3)cc2)CCC1 [MK2206, 8-[4-(1-aminocyclobutyl)phenyl]-9-phenyl-1,2,4-triazolo[3,4-f][1,6]naphthyridin-3(2H)-one]
[1]; Cln3^Δex7-8 mice, MK2206 120 mg/kg intraperitoneal
  expression of lysosomal and autophagy genes in brain: upregulation of lysosomal and autophagy genes
[2]; Cln3^Δex7-8 mice, MK2206 120 mg/kg intraperitoneal, four times every other day
  Akt activity in brain: inhibition of Akt activity
[3]
  TFEB nuclear translocation: able to induce nuclear translocation of TFEB
[4]
  number of LC3 puncta: increased number of LC3 puncta
  number of autophagic vesicles: increased number of autophagic vesicles
[4]; immunoblot
  LC3-II protein levels: increased LC3-II protein levels

From US10512656B2, “Compositions and methods for the treatment of lysosomal storage disorders and disorders characterized by lysosomal dysfunction” (Baylor College of Medicine, priority 2016, dated 2019)
